Results taken from US10464939B2, “Deuterated triazolopyridazine as a kinase modulator” (Janssen Pharmaceutica NV, priority 2014, dated 2019).
Like-named read-outs stand apart in the source and are kept apart here. Blank lines part the entries; values can stand above or below the compound they belong to.

Tests used:
CHO OCT2 cells = experiment: Cytotoxicity test (PrestoBlue viability), CHO OCT2 cells; format: cell-based, Chinese Hamster; settings: after 1 minute of incubation, compound of formula (I) 100 μM, Triton X-100 1%
Procedure: (§1) Cytotoxicity of the compound of formula (I) was determined at 100 μM, and this in both CHO parental and OCT2 cells. Also a 1% Triton-X100 condition was included, as a positive control cytotoxic reagent. After 1 minute of incubation the supernatant was aspirated, the dry cells washed twice with 1 mL HBSS^+/++10 mM Hepes pH 7.4 (37° C.). After aspiration of the buffer, a 1/10 dilution of the PrestoBlue Viability Reagent (Life Technologies) in HBSS^+/++10 mM Hepes pH 7.4 was added and plates were incubated for 60 minutes at 37° C., protected from light. Each well was sampled (150 μL) in a black 96-well plate and fluorescence was measured (Excitation: 560 nm/12 nm bandwith, Emission: 590 nm/12 nm bandwith).

CHO Parental cells = experiment: Cytotoxicity test (PrestoBlue viability), CHO parental cells; format: cell-based, Chinese Hamster; settings: for cytotoxic effects (in words): 100 μM, both CHO parental and OCT2 cells; for Cell Viability %: CHO parental cells, after 1 minute of incubation, compound of formula (I) 100 μM, Triton X-100 1%
Procedure: as §1

[1] = Solubility of Metabolite 2; format: physicochemical
Description: Solubility of Metabolite 2:

[2] = In vivo pharmacokinetic determination of compound (I), compound A and their metabolites in plasma; set-up: species or system New Zealand White Rabbits; settings: both sexes, New Zealand White, male and female rabbit; for AUC(0-inf) / AUC(0-t) / Cmax / Tmax / MRT: rabbit, po, 10 mg/kg; for MRT: read-out: MRT (mean residence time)
Description: In vivo pharmacokinetic determination of compound (I), compound A and their metabolites in New Zealand White Rabbits.
Male New Zealand rabbits (Crl: KBL (NZW), Charles River, France) and female New Zealand rabbits (NZW INRA A1077, Centre Lago) were used. Per compound (compound of formula (I) and compound A) one male and two female rabbits were used with a mean weight of 2.6±0.2 kg. A complete plasma concentration time-profile was obtained from each individual animal. Standard diet and tap water were available ad libitum. Compound of formula (I) and compound A were both dissolved in a 10% (w/v) SBE-B-CD (sulfobutyl ether-beta-cyclodextrin) research grade (Captisol) solution at a final concentration of 1 mg/ml. HCl and PVP K30 were added to facilitate dissolution of the compounds. After total dissolution, the pH was brought up to 2.6/2.7 with NaOH. The formulations were stored at room temperature, protected from light and analysed quantitatively with LC-MS/MS on the day of preparation. Stability of the formulations was checked on the day of dosing. Animals were dosed orally by gavage at 10 ml/kg to obtain a final dose of 10 mg/kg. From each individual dosed animal, blood samples were taken at 30 minutes, 1, 2, 4, 7 and 24 hours after oral administration. Blood was collected by multiple sampling from a lateral ear vein into Multivette® 600 K3E tubes (Sarstedt). Samples were placed immediately on melting ice and plasma was obtained following centrifugation at 4° C. for 10 minutes at approximately 1900×g. All samples were shielded from daylight and stored at ≤−18° C. prior to analysis. Plasma samples were analysed for compound (I), compound A, metabolite 1, metabolite 2, N-desmethyl metabolite 3 (which was calculated on the curve of N-desmethyl metabolite 4) and N-desmethyl metabolite 4 using a qualified research LC-MS/MS method. The key analytical performance (linearity, upper and lower limit of quantification, accuracy and precision) of the method was reported together with the plasma concentrations. The lower limit of quantification (LLOQ) for plasma was 1.00 ng/ml for all compounds. A limited pharmacokinetic analysis was performed using Phoenix™ Professional (Version 6.2.1). A non-compartmental analysis using the lin/log trapezoidal rule with lin/log interpolation was used for all data.

OCT2 (SLC22A2) = biological target: T1, OCT2 (SLC22A2) (Homo sapiens, UniProt O15244); experiment: in vitro; format: cell-based
T1 construct: host or cells: Chinese Hamster Ovary (CHO) cells stably transfected with OCT2
T1 sequence (O15244 1-555): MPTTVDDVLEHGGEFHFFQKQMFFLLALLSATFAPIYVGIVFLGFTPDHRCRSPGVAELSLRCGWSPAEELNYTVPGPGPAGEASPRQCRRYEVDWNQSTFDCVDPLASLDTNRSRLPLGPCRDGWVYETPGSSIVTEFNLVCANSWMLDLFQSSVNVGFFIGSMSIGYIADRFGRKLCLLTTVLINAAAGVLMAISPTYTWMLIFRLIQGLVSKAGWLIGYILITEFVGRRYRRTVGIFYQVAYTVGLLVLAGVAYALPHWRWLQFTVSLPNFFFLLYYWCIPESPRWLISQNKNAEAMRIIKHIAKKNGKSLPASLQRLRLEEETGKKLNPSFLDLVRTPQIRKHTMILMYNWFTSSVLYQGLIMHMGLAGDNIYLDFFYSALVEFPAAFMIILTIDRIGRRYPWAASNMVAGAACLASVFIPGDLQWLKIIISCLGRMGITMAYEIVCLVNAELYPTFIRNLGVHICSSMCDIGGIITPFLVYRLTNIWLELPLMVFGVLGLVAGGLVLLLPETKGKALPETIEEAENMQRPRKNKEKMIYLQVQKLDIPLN
Procedure: This was tested using Chinese Hamster Ovary (CHO) cells, parental or stably transfected with OCT2. ^14C-Metformin was used as OCT2 substrate.
CHO cell lines, parental and stably transfected with OCT2 were obtained from Solvo Biotechnology (Hungary).
CHO cells were cultured in DMEM-F12 (Dulbecco's Modified Eagle Medium) supplemented with 0.03 mg/mL L-Proline, 1% L-Glutamine, penicillin (50-100 U/mL), streptomycin (50-100 μg/mL) and 10% (v/v) foetal calf or bovine serum (FCS) further referred to as “CHO culture medium”.
If needed, non-radiolabeled and radio-labeled compounds were mixed to obtain the proper chemical and radioactive concentration. Proper solvent controls were included.
Both, CHO parental and OCT2 cells were seeded into 24 well plates (1 mL/well, 400 000 cells/well) in CHO culture medium.
Transport experiments were performed in Hank's Balanced Salt Solution^+Ca,+Mg (HBSS^+/+) supplemented with 10 mM HEPES at pH 7.4. All media added to the cells and plates were kept at 37° C.
Before the incubation, the cells in each well were washed twice with 1 mL HBSS^+/++10 mM Hepes pH 7.4 at 37° C. Next, the incubation medium, containing reference substrate and the inhibitors (or inhibitor solvent) was added (250 μL/well).
At the time of dose administration (0 min), 150 μL of the dosing solution was sampled in triplicate for determination of initial concentrations by Liquid Scintillation Counting (LSC). During the incubation period, the plates were kept at 37° C.
To stop the reaction, 1.5 mL ice-cold HBSS^+/+ was added to each well and the liquids were aspirated. Again, to each well 2 mL ice-cold HBSS^+/+ was added and aspirated while keeping the plate angled. Following aspiration of the last well, all the wells were aspirated again taking care of not touching the cells.
To lyse the cells, 250 μL of Mammalian Protein Extraction Reagent (M-PER) lysis buffer was added to each well and the plates were shaken for at least 10 minutes (400 rpm). For LSC, a 150 μL sample/well was taken and for protein analysis a 25 μL sample/well. […]

[3] = Pre-clinical toxicity tests of compound A in dog; format: in vivo
Procedure: (§2) [drawing 2] was explored in a phase I, first-in-human trial. […] Extensive additional pre-clinical experiments were performed to understand the nature of the renal effects. Metabolism data pointed into the direction of the rabbit to be a suitable toxicology species.

[4] = Phase I, first-in-human trial of compound A; format: in vivo
Procedure: The safety, pharmacokinetics, pharmacodynamics and initial efficacy of the potent and selective c-Met inhibitor with the following structure
as §2

EBC1 = experiment: Proliferation assay with Alamar blue, EBC-1 cells; format: cell-based; settings: Homo sapiens, EBC-1, 96 h, 4 days incubation
Procedure: (§3) Inhibition of Proliferation of Cancer Cells Carrying Met Amplification and Dependent on Met Signaling by the Compound of Formula (I)
(§4) Proliferation Assay with Alamar Blue
(§5) Cells were seeded out in a 96-well plate in 180 μl growth medium. Depending on the growth curve test the amount of cells per well was different for each cell line. The cells were incubated overnight in an incubator at 37° C. in a humidified 5% CO2 atmosphere. The next day: The compound plate was prepared and 4 μl of compound was added to 196 μl of pre-warmed medium. 20 μl of this was added to 180 μl of cells. This was incubated for 4 days after adding the compound at 37° C. in a humidified 5% CO2 atmosphere. After the 4 days 40 μl of Alamar blue solution was added. This was incubated at 37° C. in a humidified 5% CO2 atmosphere for 4 hours (depending on the cell line this was tested before at different hours of incubation during the growth curve test). After the 4 hours the fluorescence was measured at excitation 530 nm, emission 590 nm. The fluorescence of control (DMSO treatment) was taken as 100% and the fluorescence of cells incubated with compounds was calculated against the control in %. So a dose response curve could be made and a IC50 could be calculated.

[5] = Toxicology study of compound A in rabbit; format: in vivo
Procedure: as §2

SNU-5 = experiment: Proliferation assay with Alamar blue, Snu-5 cells; format: cell-based; settings: Homo sapiens, 96 h, 4 days incubation
Procedure: as §3, §4, §5

[6] = Pre-clinical toxicity tests of compound A in rat; format: in vivo
Procedure: as §2

[7] = test system: aldehyde oxidase / CYP450; experiment: Metabolisation of compound of formula (I) compared to compound A
Description: This may decrease renal toxicity.
In case of the present compound of formula (I) more of the N-desmethyl metabolite with the following structure is formed

[8] = single oral 10 mg/kg of compound (I)
[9] = single oral 10 mg/kg of compound A

Compound: Triton X-100 [reference compound]
- Cell Viability % (CHO OCT2 cells): 0%
- cytotoxic effects (in words) (CHO Parental cells): viability dropped dramatically
- Cell Viability % (CHO Parental cells): 0%

Compound: [2H]c1ccc2cc(C(F)(F)c3nnc4ccc(-c5cn[nH]c5)nn34)ccc2n1 [N-desmethyl metabolite 3]
- AUC(0-inf) [2, 8]: 2360 ± 450 ng·h/mL
- AUC(0-t) [2, 8]: 2310 ± 392 ng·h/mL
- Cmax [2, 8]: 738 ± 447 ng/mL
- Tmax [2, 8]: 1.2 ± 0.8 h
- MRT [2, 8]: 5.1 ± 0.3 h
- half-life [2, 8]: 4.4 ± 1.9 h

Compound: Cn1cc(-c2ccc3nnc(C(F)(F)c4ccc5ncccc5c4)n3n2)cn1 [Compound A, reference compound]
- pre-clinical toxicity profile [3]: clean toxicity profile
- toxicity finding in phase I, first-in-human trial [4]: unexpected renal toxicity
- IC50 (EBC1): 13.4 nM
- effect on renal function [5]: did affect renal function
- histological analysis of kidney [5]: crystal formation with consequently degenerative and inflammatory changes in the kidney
- IC50 (SNU-5): 13.8 nM
- pre-clinical toxicity profile [6]: clean toxicity profile
- AUC(0-inf) [2, 8]: 62.3 ± 47.8 ng·h/mL
- AUC(0-t) [2, 8]: 53.7 ± 40.6 ng·h/mL
- Cmax [2, 8]: 27.6 ± 17.4 ng/mL
- Tmax [2, 8]: 0.5 h
- MRT [2, 8]: 3.24 ± 0.76 h
- AUC(0-inf) [2, 9]: 8220 ± 5740 ng·h/mL
- AUC(0-t) [2, 9]: 8190 ± 5740 ng·h/mL
- Cmax [2, 9]: 1830 ± 1360 ng/mL
- Tmax [2, 9]: 1 h
- MRT [2, 9]: 5.2 ± 0.9 h
- half-life [2, 8]: 2.1 ± 0.4 h

Compound: O=c1ccc2cc(C(F)(F)c3nnc4ccc(-c5cn[nH]c5)nn34)ccc2[nH]1 [Metabolite 1, 6-{Difluoro[6-(1H-pyrazol-4-yl)[1,2,4]triazolo[4,3-b]pyridazin-3-yl]methyl}quinolin-2(1H)-one]
- AUC(0-inf) [2, 8]: 409 ± 7 ng·h/mL
- Cmax [2, 8]: 57.5 ± 34.2 ng/mL
- Tmax [2, 8]: 2.3 ± 1.5 h
- MRT [2, 8]: 7 ± 0.7 h
- AUC(0-inf) [2, 9]: 1050 ± 421 ng·h/mL
- AUC(0-t) [2, 9]: 934 ± 336 ng·h/mL
- Cmax [2, 9]: 126 ± 80 ng/mL
- Tmax [2, 9]: 2.7 ± 1.2 h
- MRT [2, 9]: 7.8 ± 1.4 h

Continued, in another order:

- solubility ([1]; pH 4.84, aqueous buffer): 1 µg/mL
- solubility ([1]; pH 7.33, aqueous buffer): 2 µg/mL
- AUC(0-inf) [2, 8]: 152 ± 81 ng·h/mL
- AUC(0-t) [2, 8]: 127 ± 65 ng·h/mL
- Cmax [2, 8]: 39.8 ± 13.1 ng/mL
- Tmax [2, 8]: 0.8 ± 0.3 h
- MRT [2, 8]: 3.8 ± 0.7 h
- AUC(0-inf) [2, 9]: 439 ± 331 ng·h/mL
- AUC(0-t) [2, 9]: 341 ± 259 ng·h/mL
- Cmax [2, 9]: 84.4 ± 55.9 ng/mL
- Tmax [2, 9]: 1 h
- MRT [2, 9]: 5 ± 9 h
- half-life [2, 9]: 3 ± 0.5 h
Compound: Cn1cc(-c2ccc3nnc(C(F)(F)c4ccc5[nH]c(=O)ccc5c4)n3n2)cn1 [Metabolite 2, 6-{Difluoro[6-(1-methyl-1H-pyrazol-4-yl)[1,2,4]triazolo[4,3-b]pyridazin-3-yl]methyl}quinolin-2(1H)-one]

- AUC(0-inf) [2, 9]: 1510 ± 190 ng·h/mL
- AUC(0-t) [2, 9]: 1490 ± 193 ng·h/mL
- Cmax [2, 9]: 299 ± 146 ng/mL
- Tmax [2, 9]: 1.3 ± 0.6 h
- MRT [2, 9]: 5.7 ± 0.9 h
Compound: FC(F)(c1ccc2ncccc2c1)c1nnc2ccc(-c3cn[nH]c3)nn12 [N-desmethyl metabolite 4, 6-{Difluoro[6-(1H-pyrazol-4-yl)[1,2,4]triazolo[4,3-b]pyridazin-3-yl]methyl}quinoline]

- inhibition at 1 min, 300 μM (OCT2 (SLC22A2); human, pH 7.4, inhibition of 14C-Metformin uptake): 85.5%
Compound: C=C[C@H]1C[N@@]2CC[C@H]1C[C@@H]2[C@@H](O)c1ccnc2ccc(OC)cc12 [Quinidine, reference compound]

- IC50 (OCT2 (SLC22A2)): 670 ± 20 nM
- inhibition of the 14C-Metformin uptake in OCT2 cells (in words) (OCT2 (SLC22A2)): shows inhibition
- formation of insoluble/less soluble aldehyde oxidase mediated metabolites [7]: down regulated
- IC50 (SNU-5): 13.2 nM
- AUC(0-inf) [2, 8]: 8570 ± 6440 ng·h/mL
- AUC(0-t) [2, 8]: 8460 ± 6520 ng·h/mL
- Cmax [2, 8]: 3570 ± 2320 ng/mL
- Tmax [2, 8]: 0.5 h
- MRT [2, 8]: 4.6 ± 1 h
Compound: [2H]c1ccc2cc(C(F)(F)c3nnc4ccc(-c5cnn(C)c5)nn34)ccc2n1 [Compound of formula (I)]
- Cell Viability % (CHO OCT2 cells): 103%
- IC50 (EBC1): 12 nM
- cytotoxic effects (in words) (CHO Parental cells): no cytotoxic effects were observed
- Cell Viability % (CHO Parental cells): 104%
